As usually defined, the IC50 is the concentration at which inhibition is half-maximal.

This experiment concerns the target T1, Recombinant human HSP90α (Homo sapiens, UniProt P07900).
T1 construct: host or cells: E. coli
In words: HSP90 radioligand filter binding test, competition with [3H]17AAG. As to conditions: [3H]17AAG 0.08 μM; HSP90 1.5 μg/assay; 22° C., 30 min; read-out: HSP90 inhibition IC50. The text has this:
The binding of geldanamycin or 17-allylamino-17-demethoxygeldanamycin (17AAG) to HSP90 and competitive inhibition thereof can be utilised in order to determine the inhibitory activity of the compounds according to the invention (Carreras et al. 2003, Chiosis et al. 2002).
In the specific case, a radioligand filter binding test is used. The radioligand used here is tritium-labelled 17-allylaminogeldanamycin, [3H]17AAG. This filter binding test allows a targeted search for inhibitors which interfere with the ATP binding site.
• Recombinant human HSP90α (E. coli expressed, 95% purity); • [3H]17AAG (17-allylaminogeldanamycin, [allylamino-2,3-^3H. Specific activity: 1.11×10^12 Bq/mmol (Moravek, MT-1717); • HEPES filter buffer (50 mM HEPES, pH 7.0, 5 mM MgCl2, BSA 0.01%) Multiscreen FB (1 μm) filter plate (Millipore, MAFBNOB 50). Method
The 96-well microtitre filter plates are firstly irrigated and coated with 0.1% of polyethylenimine.
The test is carried out under the following conditions: • Reaction temperature 22° C. • Reaction time: 30 min., shaking at 800 rpm • Test volume: 50 μl • Final concentrations: • 50 mM HEPES HCl, pH 7.0, 5 mM MgCl2, 0.01% (w/v) BSA • HSP90:1.5 μg/assay • [3H]17AAG: 0.08 μM.
At the end of the reaction, the supernatant in the filter plate is removed by suction with the aid of a vacuum manifold (Multiscreen Separation System, Millipore), and the filter is washed twice.
The filter plates are then measured in a beta counter (Microbeta, Wallac) with scintillator (Microscint 20, Packard).
“% of control” is determined from the “counts per minutes” values and the IC-50 value of a compound is calculated therefrom.
As to `COc1ccc(-c2c(C#N)c(N)nc3sc(C(N)=O)c(N)c23)cc1OCC(N)=O` [Compound A30], the IC50 was 3300 nM.

On to `CCOC(=O)CCCCOc1cc(-c2c(C#N)c(N)nc3sc(C(N)=O)c(N)c23)ccc1OC` [Compound A7, 2-aminocarbonyl-3,6-diamino-5-cyano-4-[3-(4-ethoxycarbonylbutoxy)-4-methoxyphenyl]thieno[2,3-b]pyridine], for which the IC50 is 1500 nM.

For `CCOC(=O)CCCOc1cc(-c2c(C#N)c(N)nc3sc(C(N)=O)c(N)c23)ccc1OC` [Compound A7c, 2-aminocarbonyl-3,6-diamino-5-cyano-4-[3-(3-ethoxycarbonylpropoxy)-4-methoxyphenyl]thieno[2,3-b]pyridine], the IC50 is 1300 nM.

In the case of `COc1ccc(-c2c(C#N)c(N)nc3sc(C(N)=O)c(N)c23)cc1OCc1ccccc1C` [Compound A11], the IC50 worked out at 1400 nM.

Consider `COc1ccc(-c2c(C#N)c(N)nc3sc(C(N)=O)c(N)c23)cc1OCc1ccc(C(=O)O)cc1` [Compound A689], for which the IC50 worked out at 740 nM.

With `COc1ccc(-c2c(C#N)c(N)nc3sc(C(N)=O)c(N)c23)cc1OCCCCCC(=O)O` [Compound A7b, 2-aminocarbonyl-3,6-diamino-5-cyano-4-[3-(5-carboxypentyloxy)-4-methoxyphenyl]thieno[2,3-b]pyridine], the IC50 was found to be 890 nM.

Regarding `COc1ccc(-c2c(C#N)c(N)nc3sc(C(N)=O)c(N)c23)cc1OCc1cccc(OC(F)F)c1` [Compound A693], the IC50 stood at 670 nM.

Regarding `COc1ccc(-c2c(C#N)c(N)nc3sc(C(N)=O)c(N)c23)cc1OCc1cccc(C(F)(F)F)c1` [Compound A21], the IC50 is 780 nM.

Consider `CCOC(=O)c1sc2nc(N)c(C#N)c(-c3ccc(OC)c(OC)c3)c2c1N` [Compound A9, 2-ethoxycarbonyl-3,6-diamino-5-cyano-4-(3,4-dimethoxyphenyl)thieno[2,3-b]pyridine], for which the half-maximal inhibitory concentration (IC50) came to 14000 nM.

In the case of `COc1ccc(-c2c(C#N)c(N)nc3sc(C(N)=O)c(N)c23)cc1OCCCCC(=O)O` [Compound A7a, 2-aminocarbonyl-3,6-diamino-5-cyano-4-[3-(4-carboxybutoxy)-4-methoxyphenyl]thieno[2,3-b]pyridine], the IC50 was determined as 650 nM.

`CCOC(=O)CCCCCOc1cc(-c2c(C#N)c(N)nc3sc(C(N)=O)c(N)c23)ccc1OC` [Compound A4, 2-aminocarbonyl-3,6-diamino-5-cyano-4-[3-(5-ethoxycarbonylpentyloxy)-4-methoxyphenyl]thieno[2,3-b]pyridine]: the IC50 is 2500 nM.

As for `COc1ccc(-c2c(C#N)c(N)nc3sc(C(N)=O)c(N)c23)cc1OC` [Compound A1, 2-aminocarbonyl-3,6-diamino-5-cyano-4-(3,4-dimethoxyphenyl)thieno[2,3-b]pyridine], the IC50 amounted to 1000 nM.
